Structures are written as SMILES. Several values for one entry are separate records, joined by “and”; a condition that tells them apart may be missing. Equal values may be shown once.

One series deals with T1, sOGT (Homo sapiens, UniProt O15294).
T1 sequence (O15294 1-665 isoform O15294-4): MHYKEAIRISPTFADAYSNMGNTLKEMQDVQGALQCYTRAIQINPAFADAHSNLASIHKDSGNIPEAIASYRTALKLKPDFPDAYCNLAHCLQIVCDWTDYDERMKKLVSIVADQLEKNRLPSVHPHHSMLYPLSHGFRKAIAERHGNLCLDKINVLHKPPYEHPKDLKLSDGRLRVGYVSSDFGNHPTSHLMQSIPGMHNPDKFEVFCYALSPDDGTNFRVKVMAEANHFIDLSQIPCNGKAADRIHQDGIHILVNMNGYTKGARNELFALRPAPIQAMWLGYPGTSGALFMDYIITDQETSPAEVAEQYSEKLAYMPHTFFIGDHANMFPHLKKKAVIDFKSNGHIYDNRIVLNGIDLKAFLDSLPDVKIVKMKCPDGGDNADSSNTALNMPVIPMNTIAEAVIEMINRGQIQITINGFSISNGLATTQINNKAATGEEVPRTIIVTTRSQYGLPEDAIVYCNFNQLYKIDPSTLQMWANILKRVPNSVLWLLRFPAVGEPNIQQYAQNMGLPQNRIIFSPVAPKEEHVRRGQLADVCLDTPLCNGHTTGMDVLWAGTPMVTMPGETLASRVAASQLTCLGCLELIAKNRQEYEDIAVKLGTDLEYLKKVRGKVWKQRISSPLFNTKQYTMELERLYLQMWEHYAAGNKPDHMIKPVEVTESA
Nature of the series: Fluorescence polarization displacement screen with fluorescein-linked UDP-GlcNAc analog. The conditions noted are these: fluorescence displacement in vitro assay; for IC50: read-out: IC50 (sOGT inhibition). Type of series: binding. The method, then:
About 1000 compound library was serially diluted in DMSO from the 5 mg/ml plates fivefold 3 times, such that 4 different concentrations of compounds were prepared. Compound libraries of the 4 concentrations in duplicated were then transferred to the assay plates using a 100 nL pin array, resulting in a final compound concentration of 25 μg/mL or ˜70 μM at the highest of the four concentrations, assuming an average compound MW of 350. Using a Perkin Elmer Envision® microplate reader, the sample was excited at 480 nm in the vertical plane, and simultaneous emission intensity (535 nm) of the vertical and horizontal polarization planes was measured. The polarization was calculated using the following equation:eq4: mP=1000*(V−G*H)/(V+G*H)where: mP=millipolarization units, V=intensity of vertically polarized emission (RFU), H=intensity of horizontally polarized emission (RFU), and G=gain.
Compounds were screened at […] different concentrations in a fluorescence displacement assay (FIG. 13A)^27. Using the known binding constant for the substrate analog, the dose-response data allowed us to estimate binding affinities (Ki values) for the hits. […] Various analogs were prepared based on a modular assembly (as in FIG. 13B), and OGT inhibition was assessed both in vitro and in cells.

The next series concerns CHO cells. Nature of the series: ApoTox-Glo cell viability, cytotoxicity and apoptosis signaling assay. Type of series: cell-based, Chinese hamster. The procedure: Cell viability, cytotoxicity and apoptosis signaling assays were performed in a 96-well plate using ApoTox-Glo reagent (Promega) according to the manufacturer's instructions.
The next series has as its system OGT in CHO cells. Nature of the series: Immunoblotting of global O-GlcNAcylation (RL2) in CHO cells. It is filed as cell-based, Chinese hamster. The conditions noted are these: 24 hours, up to 50 μM. The procedure:
In vivo inhibition of glycosylation: For all immunoblotting experiments, CHO-K1 (CHO) cells were grown in F12-K media supplemented with 10% FBS and antibiotics at 37° C. in a 5% CO2 incubator. Cells were treated by adding indicated inhibitor in DMSO vehicle (0.5% final vehicle concentration) upon reaching 70% confluence. After indicated treatment length, cells were harvested by aspirating growth media and washing with ice cold 1× PBS. Cells were subsequently lysed in boiling 1% SDS/20 mM HEPES 7.9. After cooling to room temperature, 1 mM PMSF, 10 μM PUGNAC, 10 μM TMG and 1× Complete protease inhibitor cocktail were added to the solution. The mixture was sonicated and then subjected to a 5 minute incubation at 95° C. The samples were centrifuged for 15 minutes at 20,000×g and the supernatant was collected and the total protein was measured by BCA assay (BIO-RAD).
The sample was separated by SDS-PAGE (Bio-Rad 4-15%, Cat: 345-0028), transferred to a nitrocellulose membrane (iBlot, Invitrogen) and probed with the indicated antibody. Tyipcally, membranes were blocked with 4% BSA in 1× TBS+0.04% tween-20 for 1 hour before incubating with antibody (typically diluted 1:1000 in 4% BSA inlx TBS+0.04% tween-20) overnight at 4° C. Membranes were then washed three times with 1× TBS+0.04% tween-20 and incubated with secondary antibody (typically diluted 1:5000 in 4% BSA in 1× TBS+0.04% tween-20) for 1 hour at room temperature. Lastly, membranes were washed 3× with 1× TBS+0.04% tween-20 and imaged with ECL. D283-Med cells were treated as above but grown in F12-K media supplemented with 10% FBS and antibiotics. HEK, HeLa and LNCaP cells were treated as above but grown in RPMI media supplemented with 10% FBS and antibiotics.
(Immunoblotting shows a protein as a band on a membrane.)

A further series has as its target T2, ncOGT (Homo sapiens, UniProt O15294).
T2 construct: full length human OGT (ncOGT); made in house
T2 sequence (O15294 1-1046): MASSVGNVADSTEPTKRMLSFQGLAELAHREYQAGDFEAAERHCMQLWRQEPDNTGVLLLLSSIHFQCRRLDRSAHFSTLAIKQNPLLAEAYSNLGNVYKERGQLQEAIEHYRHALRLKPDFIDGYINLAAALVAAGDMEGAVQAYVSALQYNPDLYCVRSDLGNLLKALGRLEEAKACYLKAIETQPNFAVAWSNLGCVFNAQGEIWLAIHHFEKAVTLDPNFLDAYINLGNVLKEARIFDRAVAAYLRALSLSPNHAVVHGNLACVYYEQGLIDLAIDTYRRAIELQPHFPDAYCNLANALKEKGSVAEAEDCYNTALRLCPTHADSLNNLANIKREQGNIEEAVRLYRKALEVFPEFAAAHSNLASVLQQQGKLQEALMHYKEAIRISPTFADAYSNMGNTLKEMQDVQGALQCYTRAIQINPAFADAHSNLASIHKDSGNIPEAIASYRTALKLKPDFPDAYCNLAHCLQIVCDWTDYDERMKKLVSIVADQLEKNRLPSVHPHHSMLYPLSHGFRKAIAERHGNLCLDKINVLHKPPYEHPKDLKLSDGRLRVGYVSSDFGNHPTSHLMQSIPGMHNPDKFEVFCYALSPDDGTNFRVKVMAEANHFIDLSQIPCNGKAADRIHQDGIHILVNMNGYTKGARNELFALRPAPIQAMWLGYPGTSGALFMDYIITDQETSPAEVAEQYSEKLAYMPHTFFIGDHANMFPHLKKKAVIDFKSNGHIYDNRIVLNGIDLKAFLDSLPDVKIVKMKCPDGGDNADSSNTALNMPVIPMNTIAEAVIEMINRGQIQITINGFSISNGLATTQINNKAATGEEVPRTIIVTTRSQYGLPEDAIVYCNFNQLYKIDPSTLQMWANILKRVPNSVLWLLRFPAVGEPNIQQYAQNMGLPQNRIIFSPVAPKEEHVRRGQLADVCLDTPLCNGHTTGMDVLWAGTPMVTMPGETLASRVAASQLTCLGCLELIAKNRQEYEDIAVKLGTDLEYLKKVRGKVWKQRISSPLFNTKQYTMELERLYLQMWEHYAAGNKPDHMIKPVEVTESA
Description: Radiometric capture assay with Nup62 acceptor and UDP-14C-GlcNAc. It is filed as biochemical. The procedure: Radiometric capture assay: Nucleoporin 62 (Nup62) was used as a model substrate. IC50 values of the both inhibitors were determined at range of 0 to 100 μM (eight point, duplicate). OGT antagonists were tested in a reaction mixture containing 18 μM Nup62, 6 μM UDP-^14C-GlcNAc, 100 nM ncOGT, and lx phosphate-buffered saline (1× PBS) (137 mM NaCl, 2.7 mM KCl, 10 mM Na2HPO4, and 1.8 mM KH2PO4, pH 7.4). The Nup62 glycosylation reactions were run for 15 min at 37° C. Reaction mixtures were subsequently quenched by spottinged on Whatman® Protran® nitrocellulose membrane, washed with 1× PBS three times for 15 minutes each. The membranes were air dried and then counted by liquid scintillation counting. The data were analyzed by Microsoft® Excel and Prism 6 (Graphpad®). Robust non-linear variable slope regressions were generated to determine the IC50 and Hill slope values.
In order to evaluate the mode of inhibition of OSMI-1 and UDP-5S-GlcNAc, a series of experiments, as outlined above, were performed with Nup62 as glycosylation substrate. The inhibition test of OSMI-1 was performed by varying the UDP-^14C-GlcNAc concentration from 0 to 0.25 mM while holding concentration of Nup62 constant at 10 μM with four different concentrations of OSMI-1 (0 to 2 μM) in 1× PBS with 100 nM ncOGT and with fixed and saturating concentrations of GST-Nup62 acceptor. The inhibition test of UDP-5S-GlcNAc was performed by varying the UDP-^14C-GlcNAc concentration from 0 to 1 mM while holding concentration of Nup62 constant at 10 μM with five different concentrations of UDP-5S-GlcNAc (0, 1, 5, 10, and 15 μM) in 1× PBS with 100 nM ncOGT. Each reaction was spotted on Whatman® grade P81 ion exchange chromatography paper circles, washed with 1× PBS three times for 15 minutes each. The membranes were air dried and then counted by liquid scintillation counting. Each assay was duplicated in parallel. The data were analyzed by Microsoft® Excel and Prism 6 (Graphpad®). The Michaelis-Menten plots and Ki of both inhibitors calculated under non-linear regression with competitive inhibition mode are shown in FIG. 5.

Series [1] deals with T3, full length human OGT (ncOGT) (Homo sapiens, UniProt O15294).
T3 construct: made in house
T3 sequence (O15294 1-1046): T2 sequence (O15294 1-1046)
Description: UDP-Glo luminescence-based coupled enzyme assay. Type of series: biochemical. The conditions noted are these: 40 μM UDP-GlcNAc, 125 μM CKII3K peptide; read-out: IC50 against ncOGT, coupled enzyme assay. The procedure: UDP-Glo assay: Materials for this assay were obtained from Promega (catalog #V6961), and the experiment was performed largely as outlined by the manufacturer. IC50 values were determined in the range of 0 to 100 μM (eleven concentration points). Assays were performed either in white, 96-well or ½-volume 96-well, plates. This assay was run with 125 μM CKII3K peptide acceptor. Reaction volumes were between 14 (half volume plates) and 20 (normal volume plates) μL. Reactions contained the following components: 300 nM ncOGT, 125 μM CKII3K and 40 μM UDP-GlcNAc in 1× PBS pH 7.4 supplemented with 1 mM THP. Reactions were incubated for one hour at 25° C. and quenched by the addition of an equal volume of UDP-Glo nucleotide detection reagent, prepared and used according to manufacturer guidelines. The quenched reactions were then mixed briefly by shaking at 1800 rpm in a Thermomixer C, and incubated for one hour at room temperature prior to reading luminescence, as per the manufacturers guidelines. Data were analyzed by Microsoft Excel and Prism 6 (Graphpad). When evaluating the effect of sugar donor concentration, this parameter was varied, while all other conditions remained as described above. Each sample in this case was run in duplicate, unless otherwise specified. The 40 μM curve in FIG. 16C has each point in quadruplicate. Similarly, there is an n=9 for each point in the OSMI-1 curve in FIG. 16B.

In the case of `CC(C)N(Cc1ccccc1)C(=O)[C@H](NS(=O)(=O)c1ccc2[nH]c(=O)ccc2c1)c1ccccc1`, the IC50 on sOGT is 7 µM.

As for `O=C([C@H](NS(=O)(=O)c1ccc2[nH]c(=O)ccc2c1)c1ccccc1)N1CCN(c2ccccn2)CC1`, the IC50 at sOGT was found to be 10 µM.

Consider `Cc1ccc(N2CCN(C(=O)[C@H](NS(=O)(=O)c3ccc4[nH]c(=O)ccc4c3)c3ccccc3)CC2)cc1`, for which the IC50 on sOGT was determined as 9 µM.

`O=C([C@H](NS(=O)(=O)c1ccc2[nH]c(=O)ccc2c1)c1ccccc1)N1CCC(Cc2ccccc2)CC1` showed a Ki on sOGT of 2 µM.

In the case of `O=C([C@@H](Cc1ccccc1)NS(=O)(=O)c1ccc2[nH]c(=O)ccc2c1)N(Cc1ccco1)Cc1cccs1` [PG34, (R)—N-(furan-2-ylmethyl)-2-(2-oxo-1,2-dihydroquinoline-6-sulfonamido)-3-phenyl-N-(thiophen-2-ylmethyl)propanamide], the “Effect on cell viability” value with CHO cells is reported as “affected cell viability similarly to OSMI-1”. Also, the Apoptotic signaling result in the series on CHO cells (up to 50 μM) is “Neither compound displayed an effect on apoptotic signaling”. Moreover, the “Effect on global O-GlcNAcylation” value in the series with OGT in CHO cells is “no reduction in global O-GlcNAc levels”. Also, the “In vitro inhibitory activity against OGT” value at ncOGT (radiometric capture assay) is given as “poor in vitro inhibitory activity against OGT”.

Take `CC(=O)N[C@@H]1C(OP(=O)(O)OP(=O)(O)OC[C@H]2O[C@@H](n3ccc(=O)[nH]c3=O)[C@H](O)[C@@H]2O)SC(CO)C(O)[C@@H]1O` (some centres unmarked) [UDP-5SGlcNAc, reference compound]: the IC50 in series [1] was 78.8 µM; on ncOGT (6 μM UDP-GlcNAc, 18 μM GST-Nup62), 11 µM and 11.1 µM. In addition, the Ki on ncOGT (non-linear regression, competitive inhibition fit, Nup62 substrate, read-out: Inhibition constant (Ki)) was 5 µM.

In general, IC50 refers to the concentration needed to halve the response being measured. As a reminder, the Ki is the dissociation constant of the complex between target and ligand, obtained from inhibition or displacement.

The record behind these values is US20170166558A1, “O-GLCNAC TRANSFERASE (OGT) INHIBITORS AND USES THEREOF” (President and Fellows of Harvard College, priority 2014, published 2017).
